Test results from patent US5202315A, “Cephalosporin compounds” (Lucky, Ltd., priority 1989, dated 1993).
Values after ≈ are worked out from the molar mass of the structure shown. Like-named read-outs stand apart in the source and are kept apart here.

Assays:
[1] = system: Acinetobacter calcoaceticus ATCC 15473; test: Antibacterial activity, MIC; type: cell-based
Outline: (§1)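 Incubation at 37 °C for 20 h followed inoculation of 2 μl standard strain (10^7 CFU/ml) onto agar carrying the compound. Compound was incorporated into Mueller-Hinton agar as two-fold serial dilutions.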

[2] = system: Bacillus cereus ATCC 11778; test: Antibacterial activity, MIC; type: cell-based
Outline: as §1

[3] = system: Bacillus megaterium ATCC 9885; test: Antibacterial activity, MIC; type: cell-based; conditions: Priestia megaterium
Outline: as §1

[4] = system: Citrobacter freundii ATCC 8090; test: Antibacterial activity, MIC; type: cell-based
Outline: as §1

[5] = system: Enterobacter aerogenes ATCC 29751; test: Antibacterial activity, MIC; type: cell-based; conditions: Klebsiella aerogenes
Outline: as §1

[6] = system: Enterobacter cloacae ATCC 27508; test: Antibacterial activity, MIC; type: cell-based
Outline: as §1

[7] = system: Escherichia coli ATCC 10536; test: Antibacterial activity, MIC; type: cell-based; conditions: ATCC10536, agar two-fold dilution, 37° C., 20 hours
Outline: as §1

[8] = system: Escherichia coli ATCC 25922; test: Antibacterial activity, MIC; type: cell-based; conditions: ATCC25922, agar two-fold dilution, 37° C., 20 hours
Outline: as §1

[9] = system: Klebsiella pneumoniae ATCC 10031; test: Antibacterial activity, MIC; type: cell-based
Outline: as §1

[10] = system: Micrococcus luteus ATCC 9341; test: Antibacterial activity, MIC; type: cell-based
Outline: as §1

[11] = system: Morganella morganii ATCC 8076h; test: Antibacterial activity, MIC; type: cell-based; conditions: ATCC8076H, agar two-fold dilution, 37° C., 20 hours
Outline: as §1

[12] = system: Proteus mirabilis ATCC 25933; test: Antibacterial activity, MIC; type: cell-based
Outline: as §1

[13] = system: Proteus vulgaris ATCC 6059; test: Antibacterial activity, MIC; type: cell-based
Outline: as §1

[14] = system: Providencia rettgeri ATCC 9250; test: Antibacterial activity, MIC; type: cell-based; conditions: ATCC9250, agar two-fold dilution, 37° C., 20 hours
Outline: as §1

[15] = system: Pseudomonas aeruginosa ATCC 10145; test: Antibacterial activity, MIC; type: cell-based
Outline: as §1

[16] = system: Pseudomonas aeruginosa ATCC 25619; test: Antibacterial activity, MIC; type: cell-based
Outline: as §1

[17] = system: Pseudomonas aeruginosa ATCC 27853; test: Antibacterial activity, MIC; type: cell-based
Outline: as §1

[18] = system: Salmonella typhimurium ATCC 14028; test: Antibacterial activity, MIC; type: cell-based; conditions: Salmonella enterica
Outline: as §1

[19] = system: Serratia marcescens ATCC 27117; test: Antibacterial activity, MIC; type: cell-based
Outline: as §1

[20] = system: Shigella flexneri ATCC 11836; test: Antibacterial activity, MIC; type: cell-based; conditions: ATCC11836, agar two-fold dilution, 37° C., 20 hours
Outline: as §1

[21] = system: Shigella sonnei ATCC 11060; test: Antibacterial activity, MIC; type: cell-based; conditions: ATCC11060, ATCC 11060, agar two-fold dilution, 37° C., 20 hours, read-out: MIC
Outline: as §1

[22] = system: Staphylococcus aureus ATCC 10537; test: Antibacterial activity, MIC; type: cell-based
Outline: as §1

[23] = system: Staphylococcus aureus ATCC 6538p; test: Antibacterial activity, MIC; type: cell-based; conditions: ATCC6538P
Outline: as §1

[24] = system: Staphylococcus epidermidis ATCC 12228; test: Antibacterial activity, MIC; type: cell-based
Outline: as §1

[25] = system: Streptococcus faecalis ATCC 29212; test: Antibacterial activity, MIC; type: cell-based; conditions: Enterococcus faecalis
Outline: as §1

[26] = system: Escherichia coli; test: Antibacterial activity against clinically isolated strains, MIC; type: cell-based
[27] = system: Klebsiella pneumoniae; test: as above; type: cell-based
[28] = system: Staphylococcus aureus methicillin susceptible; test: as above; type: cell-based
[29] = system: Staphylococcus aureus methicillin resistant; test: as above; type: cell-based
[30] = system: Pseudomonas aeruginosa; test: as above; type: cell-based
[31] = In-vivo absorbency (plasma concentrations & pharmacokinetic parameters); design: species or system SD rat (male); conditions: rat, in vivo, iv, 20 mg/kg
Source text: The blood samples from the femoral vein of the rats were taken every hour after administration, and analyzed by bio-assay(agar well method).
Tested animal: SD male Rat (220~340 g)

[32] = as above; design: species or system SD rat (male); conditions: rat, in vivo, iv, 20 mg/kg; remark: listed apart in the source
[33] = 38 clinical isolates, broth microdilution test

## CC(C)(O/N=C(\C(=O)N[C@@H]1C(=O)N2C(C(=O)[O-])=C(C[n+]3ccccc3)CS[C@H]12)c1csc(N)n1)C(=O)O [Ceftazidime, reference compound]
[1]; ATCC15473, 20 h
  MIC: 4 µg/mL (≈ 7.32 µM)
[2]; ATCC11778, 20 h
  MIC: 128 µg/mL (≈ 234 µM)
[3]; ATCC9885, 20 h
  MIC: 0.25 µg/mL (≈ 0.457 µM)
[4]; ATCC8090, 20 h
  MIC: 0.25 µg/mL (≈ 0.457 µM)
[5]; ATCC29751, 20 h
  MIC: 8 µg/mL (≈ 14.6 µM)
[6]; ATCC27508, 20 h
  MIC: 0.063 µg/mL (≈ 0.115 µM)
[7]
  MIC: 0.13 µg/mL (≈ 0.238 µM)
[8]
  MIC: 0.13 µg/mL (≈ 0.238 µM)
[9]; ATCC10031, 20 h
  MIC: 0.13 µg/mL (≈ 0.238 µM)
[10]; ATCC9341, 20 h
  MIC: 1 µg/mL (≈ 1.83 µM)
[11]
  MIC: 0.016 µg/mL (≈ 0.0293 µM)
[12]; ATCC25933, 20 h
  MIC: 0.063 µg/mL (≈ 0.115 µM)
[13]; ATCC6059, 20 h
  MIC: 0.063 µg/mL (≈ 0.115 µM)
[14]
  MIC: ≤ 0.008 µg/mL
[15]; ATCC10145, 20 h
  MIC: 2 µg/mL (≈ 3.66 µM)
[16]; ATCC25619, 20 h
  MIC: 1 µg/mL (≈ 1.83 µM)
[17]; ATCC27853, 20 h
  MIC: 1 µg/mL (≈ 1.83 µM)
[18]; 20 h
  MIC: 0.25 µg/mL (≈ 0.457 µM)
[19]; ATCC27117, 20 h
  MIC: 0.13 µg/mL (≈ 0.238 µM)
[20]
  MIC: 0.063 µg/mL (≈ 0.115 µM)
[21]
  MIC: 0.13 µg/mL (≈ 0.238 µM)
[22]; ATCC10537, 20 h
  MIC: 8 µg/mL (≈ 14.6 µM)
[23]; 20 h
  MIC: 16 µg/mL (≈ 29.3 µM)
[24]; ATCC12228, 20 h
  MIC: 8 µg/mL (≈ 14.6 µM)
[25]; ATCC29212, 20 h
  MIC: > 128 µg/mL
[26]
  MIC50: 0.13 µg/mL (≈ 0.238 µM)
[26]; [33]
  MIC90: 0.13 µg/mL (≈ 0.238 µM)
[27]
  MIC50: 0.063 µg/mL (≈ 0.115 µM)
  MIC90: 0.5 µg/mL (≈ 0.915 µM)
[28]
  MIC50: 8 µg/mL (≈ 14.6 µM)
  MIC90: 8 µg/mL (≈ 14.6 µM)
[29]
  MIC50: 128 µg/mL (≈ 234 µM)
  MIC90: > 128 µg/mL
[30]
  MIC50: 4 µg/mL (≈ 7.32 µM)
  MIC90: 16 µg/mL (≈ 29.3 µM)
[31]
  concentration at 1 h: 4700 ng/mL
  concentration at 2 h: 1600 ng/mL
[32]
  AUC: 31100 ng·h/mL
  concentration at 1 min: 135000 ng/mL
  concentration at 2.5 min: 94000 ng/mL
  concentration at 5 min: 71000 ng/mL
  concentration at 10 min: 53000 ng/mL
  concentration at 20 min: 26000 ng/mL
  concentration at 40 min: 10000 ng/mL

## C#CCO/N=C(\C(=O)NC1C(=O)N2C(C(=O)[O-])=C(CSc3nc(N)cc(N)[n+]3C)CSC12)c1csc(N)n1 (stereo not shown) [Compound I-46]
[1]; ATCC15473, ATCC 15473, agar two-fold dilution, 37° C., 20 hours, read-out: MIC
  MIC: 2 µg/mL (≈ 3.47 µM)
[2]; ATCC11778, ATCC 11778, agar two-fold dilution, 37° C., 20 hours, read-out: MIC
  MIC: 8 µg/mL (≈ 13.9 µM)
[3]; ATCC9885, ATCC 9885, agar two-fold dilution, 37° C., 20 hours, read-out: MIC
  MIC: 0.063 µg/mL (≈ 0.109 µM)
[4]; ATCC8090, ATCC 8090, agar two-fold dilution, 37° C., 20 hours, read-out: MIC
  MIC: 0.063 µg/mL (≈ 0.109 µM)
[5]; ATCC29751, ATCC 29751, agar two-fold dilution, 37° C., 20 hours, read-out: MIC
  MIC: 0.25 µg/mL (≈ 0.434 µM)
[6]; ATCC27508, ATCC 27508, agar two-fold dilution, 37° C., 20 hours, read-out: MIC
  MIC: ≤ 0.008 µg/mL
[7]
  MIC: 0.063 µg/mL (≈ 0.109 µM)
[8]
  MIC: 0.063 µg/mL (≈ 0.109 µM)
[9]; ATCC10031, ATCC 10031, agar two-fold dilution, 37° C., 20 hours, read-out: MIC
  MIC: ≤ 0.008 µg/mL
[10]; ATCC9341, ATCC 9341, agar two-fold dilution, 37° C., 20 hours, read-out: MIC
  MIC: 0.016 µg/mL (≈ 0.0278 µM)
[11]
  MIC: ≤ 0.008 µg/mL
[12]; ATCC25933, ATCC 25933, agar two-fold dilution, 37° C., 20 hours, read-out: MIC
  MIC: 0.063 µg/mL (≈ 0.109 µM)
[13]; ATCC6059, ATCC 6059, agar two-fold dilution, 37° C., 20 hours, read-out: MIC
  MIC: 0.13 µg/mL (≈ 0.226 µM)
[14]
  MIC: ≤ 0.008 µg/mL
[15]; ATCC10145, ATCC 10145, agar two-fold dilution, 37° C., 20 hours, read-out: MIC
  MIC: 4 µg/mL (≈ 6.95 µM)
[16]; ATCC25619, ATCC 25619, agar two-fold dilution, 37° C., 20 hours, read-out: MIC
  MIC: 0.5 µg/mL (≈ 0.869 µM)
[17]; ATCC27853, ATCC 27853, agar two-fold dilution, 37° C., 20 hours, read-out: MIC
  MIC: 2 µg/mL (≈ 3.47 µM)
[18]; ATCC 14028, agar two-fold dilution, 37° C., 20 hours, read-out: MIC
  MIC: 0.25 µg/mL (≈ 0.434 µM)
[19]; ATCC27117, ATCC 27117, agar two-fold dilution, 37° C., 20 hours, read-out: MIC
  MIC: 0.13 µg/mL (≈ 0.226 µM)
[20]
  MIC: 0.016 µg/mL (≈ 0.0278 µM)
[21]
  MIC: 0.063 µg/mL (≈ 0.109 µM)
[22]; ATCC10537, ATCC 10537, agar two-fold dilution, 37° C., 20 hours, read-out: MIC
  MIC: 0.13 µg/mL (≈ 0.226 µM)
[23]; ATCC 6538p, agar two-fold dilution, 37° C., 20 hours, read-out: MIC
  MIC: 0.13 µg/mL (≈ 0.226 µM)
[24]; ATCC12228, ATCC 12228, agar two-fold dilution, 37° C., 20 hours, read-out: MIC
  MIC: 0.031 µg/mL (≈ 0.0539 µM)
[25]; ATCC29212, ATCC 29212, agar two-fold dilution, 37° C., 20 hours, read-out: MIC
  MIC: 16 µg/mL (≈ 27.8 µM)
[26]; [33]
  MIC50: 0.13 µg/mL (≈ 0.226 µM)
  MIC90: 0.25 µg/mL (≈ 0.434 µM)
[27]; 10 clinical isolates, broth microdilution test
  MIC50: 0.13 µg/mL (≈ 0.226 µM)
[27]; 10 clinical isolates, broth microdilution test, read-out: MIC 90%
  MIC90: 0.13 µg/mL (≈ 0.226 µM)
[28]; methicillin susceptible, 42 clinical isolates, broth microdilution test
  MIC50: 0.25 µg/mL (≈ 0.434 µM)
[28]; methicillin susceptible, 42 clinical isolates, broth microdilution test, read-out: MIC 90%
  MIC90: 0.25 µg/mL (≈ 0.434 µM)
[29]; methicillin resistant, 7 clinical isolates, broth microdilution test
  MIC50: > 32 µg/mL
[29]; methicillin resistant, 7 clinical isolates, broth microdilution test, read-out: MIC 90%
  MIC90: > 32 µg/mL
[30]; 54 clinical isolates, broth microdilution test
  MIC50: 4 µg/mL (≈ 6.95 µM)
[30]; 54 clinical isolates, broth microdilution test, read-out: MIC 90%
  MIC90: 8 µg/mL (≈ 13.9 µM)
